This experiment concerns the target recombinant Mcl-1 (residues 172-327) (Homo sapiens (Human), UniProt Q07820). Nature of the experiment: Fluorescence polarization anisotropy competition assay (FITC-Bak or FITC-Bim BH3 peptide), Mcl-1. It counts as binding. As to conditions: FITC-labeled BH3 peptide (Bak or Bim) displacement; Ki converted from IC50; printed as range bins; read-out: Ki for Inhibition of Mcl-1. In general terms: Fluorescence polarisation rises when a labelled molecule tumbles more slowly, as on binding a larger partner.

The results in this text go back to patent US11208415B2, “Substituted indole Mcl-1 inhibitors” (Vanderbilt University, priority 2014, dated 2021).

pKi: −log10 of the molar value.

Sequence of recombinant Mcl-1 (residues 172-327) (Q07820 172-327): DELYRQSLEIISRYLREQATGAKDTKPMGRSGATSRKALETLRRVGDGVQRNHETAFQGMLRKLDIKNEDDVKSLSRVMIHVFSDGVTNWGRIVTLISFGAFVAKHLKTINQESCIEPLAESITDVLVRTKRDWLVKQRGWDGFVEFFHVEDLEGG

For orientation: pKi means the negative decadic logarithm of the Ki, by convention in mol/L. As to `Cc1cc(OCCCc2c3n(c4c(-c5c(C)nn(C)c5C)c(Cl)ccc24)CCCN(c2cc(C(=O)O)c4cn(C)nc4c2)C3=O)cc(C)c1Cl` [Example I-366, 6-(8-chloro-1-(3-(4-chloro-3,5-dimethylphenoxy)propyl)-1-oxo-7-(1,3,5-trimethyl-1H-pyrazol-4-yl)-4,5-dihydro-1H-[1,4]diazepino[1,2-a]indol-2(3H)-yl)-2-methyl-2H-indazole-4-carboxylic acid], the negative-log Ki (pKi) was > 7.30.
